Measurements from US11155560B2, “Substituted pyrazolo[1,5-a]pyrimidines for modulating CDK9 activity” (Kronos Bio, Inc., priority 2018, dated 2021).

Target: CDK9/cyclin T1 (Homo sapiens, UniProt P50750)
Assay: CDK9/cyclin T1 kinase inhibition, LANCE assay
Assay type: biochemical
Conditions: reaction time 60 minutes, 10 μM ATP, 10-dose IC50, compounds 35-126 (127-208 listed, method not stated), read-out: CDK9/cyclin T1 Potency Grade
Experimental: Exemplary compounds of the invention (35-126) were tested for inhibition of CDK9/cyclin T1 kinase. Using a LANCE assay (reaction time 60 minutes), the compounds were tested in 10-dose IC50 duplicate mode with a 3-fold serial dilution starting at 4.3 μM. […] Reactions were carried out at 10 μM ATP. Data was normalized to positive and negative controls and curve fits were analyzed with XLFIT5 as % inhibition vs. log [compound concentration] using a 4-parameter logistic model205. Fit=(A+((B−A)/(1+((C/x)^D)))); Res =(y-fit).

Chain of CDK9/cyclin T1 (P50750 whole entry): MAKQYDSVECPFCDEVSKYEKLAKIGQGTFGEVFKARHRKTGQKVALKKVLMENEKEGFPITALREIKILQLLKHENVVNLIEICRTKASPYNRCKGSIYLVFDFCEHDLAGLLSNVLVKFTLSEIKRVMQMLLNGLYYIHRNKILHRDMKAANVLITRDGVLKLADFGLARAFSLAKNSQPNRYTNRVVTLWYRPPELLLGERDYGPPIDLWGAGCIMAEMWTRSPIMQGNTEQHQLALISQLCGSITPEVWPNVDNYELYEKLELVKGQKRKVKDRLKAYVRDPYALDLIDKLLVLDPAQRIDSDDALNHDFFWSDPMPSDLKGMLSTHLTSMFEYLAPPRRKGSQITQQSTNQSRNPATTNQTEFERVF
Chain of CDK9/cyclin T1 (O60563 whole entry partner): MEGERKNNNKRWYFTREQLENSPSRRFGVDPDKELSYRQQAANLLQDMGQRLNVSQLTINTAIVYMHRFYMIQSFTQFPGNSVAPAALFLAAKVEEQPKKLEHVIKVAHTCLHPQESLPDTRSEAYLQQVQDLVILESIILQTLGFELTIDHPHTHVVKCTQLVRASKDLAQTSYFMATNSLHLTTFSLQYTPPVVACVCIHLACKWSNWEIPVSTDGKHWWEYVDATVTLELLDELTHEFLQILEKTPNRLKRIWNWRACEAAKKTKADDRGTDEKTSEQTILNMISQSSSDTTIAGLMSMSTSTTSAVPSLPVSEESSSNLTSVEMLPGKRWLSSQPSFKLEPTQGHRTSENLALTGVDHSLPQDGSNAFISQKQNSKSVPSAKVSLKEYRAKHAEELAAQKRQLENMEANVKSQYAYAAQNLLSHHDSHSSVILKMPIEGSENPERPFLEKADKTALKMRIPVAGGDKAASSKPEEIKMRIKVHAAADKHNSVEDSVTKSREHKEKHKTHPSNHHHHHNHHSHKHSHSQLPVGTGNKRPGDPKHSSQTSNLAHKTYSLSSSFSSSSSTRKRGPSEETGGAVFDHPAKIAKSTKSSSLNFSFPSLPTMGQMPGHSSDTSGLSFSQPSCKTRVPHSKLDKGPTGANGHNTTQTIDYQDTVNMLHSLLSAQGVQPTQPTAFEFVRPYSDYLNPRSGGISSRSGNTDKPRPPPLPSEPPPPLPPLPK

| Compound | IC50 |
| --- | --- |
| CN1CCN(c2cc(N[C@H]3CC[C@H](N)C3)n3nccc3n2)CC1=O [Compound 102] | 1 to 500 nM |
| Cc1ncc(-c2cc(N[C@H]3CC[C@H](N)C3)n3nccc3n2)cn1 [Compound 103] | 501 to 1000 nM |
| N[C@H]1CC[C@H](Nc2cc(-c3ccc4c(c3)OCO4)nc3c(Cl)cnn23)C1 [Compound 104] | 1 to 500 nM |
| Cc1cc(C)cc(-c2cc(N[C@H]3CC[C@H](N)C3)n3nccc3n2)c1 [Compound 105] | 1 to 500 nM |
| N[C@H]1CC[C@H](Nc2cc(-c3ccc(F)cc3)nc3ccnn23)C1 [Compound 107] | 1 to 500 nM |
| CC(C)c1ccc(-c2cc(N[C@H]3CC[C@H](N)C3)n3nccc3n2)cc1 [Compound 108] | 1 to 500 nM |
| N[C@H]1CC[C@H](Nc2cc(C3=CCCCC3)nc3ccnn23)C1 [Compound 109] | 1 to 500 nM |
| N[C@H]1CC[C@H](Nc2cc(C3=CCOCC3)nc3ccnn23)C1 [Compound 110] | 501 to 1000 nM |
| N[C@H]1CC[C@H](Nc2cc(-c3cccc(F)c3)nc3ccnn23)C1 [Compound 111] | 1 to 500 nM |
| N[C@H]1CC[C@H](Nc2cc(C3=CCCOC3)nc3ccnn23)C1 [Compound 112] | 1 to 500 nM |
| CC(C)(C#N)c1ccc(-c2cc(N[C@H]3CC[C@H](N)C3)n3nccc3n2)cc1 [Compound 113] | 1 to 500 nM |
| N[C@H]1CC[C@H](Nc2cc(-c3ccc(C4CC4)cc3)nc3ccnn23)C1 [Compound 114] | 1 to 500 nM |
| N[C@H]1CC[C@H](Nc2cc(C3CCCCC3)nc3ccnn23)C1 [Compound 115] | 1 to 500 nM |
| Cn1ccc(-c2cc(N[C@H]3CC[C@H](N)C3)n3nccc3n2)n1 [Compound 116] | 1 to 500 nM |
| CC1(C)CC1c1cc(N[C@H]2CC[C@H](N)C2)n2nccc2n1 (some centres unmarked) [Compound 117] | 1 to 500 nM |
| N[C@H]1CC[C@H](Nc2cc(C#Cc3ccccc3)nc3ccnn23)C1 [Compound 118] | 1 to 500 nM |
| N[C@H]1CC[C@H](Nc2cc(C#CC3CCCCC3)nc3ccnn23)C1 [Compound 119] | 1 to 500 nM |
| N[C@H]1CC[C@H](Nc2cc(C#CC3CC3)nc3ccnn23)C1 [Compound 120] | 1 to 500 nM |
| CC(C)c1cccc(-c2cc(N[C@H]3CC[C@H](N)C3)n3nccc3n2)c1 [Compound 121] | 1 to 500 nM |
| CC1CCC(c2cc(N[C@H]3CC[C@H](N)C3)n3nccc3n2)CC1 (some centres unmarked) [Compound 122] | 1 to 500 nM |
| CC1(c2cc(N[C@H]3CC[C@H](N)C3)n3nccc3n2)CC1 [Compound 123] | 1 to 500 nM |

| Compound | IC50 |
| --- | --- |
| N[C@H]1CC[C@H](Nc2cc(C3CCOC3)nc3ccnn23)C1 (some centres unmarked) [Compound 124] | 501 to 1000 nM |
| N[C@H]1CC[C@H](Nc2cc(C3CCC(F)(F)CC3)nc3ccnn23)C1 [Compound 125] | 1 to 500 nM |
| N[C@H]1CC[C@H](Nc2cc(C3=CCOC3)nc3ccnn23)C1 [Compound 126] | 501 to 1000 nM |
| CC(=O)Nc1cc(N[C@@H]2CC[C@@H](N)C2)n2ncc(Cl)c2n1 [Compound 127] | 1 to 500 nM |
| CC(=O)Nc1cc(N[C@@H]2CC[C@@H](N)C2)n2nccc2n1 [Compound 128] | > 1000 nM |
| N[C@@H]1CC[C@@H](Nc2cc(C3CCC3)nc3ccnn23)C1 [Compound 133] | 1 to 500 nM |
| N[C@@H]1CC[C@@H](Nc2cc(C3CC3)nc3ccnn23)C1 [Compound 134] | 1 to 500 nM |
| CC(C)c1cc(N[C@@H]2CCN(C)C2)n2nccc2n1 [Compound 135] | > 1000 nM |
| CC(C)c1cc(N[C@@H]2CC[C@@H](NC=O)C2)n2nccc2n1 [Compound 137] | 1 to 500 nM |
| CCc1cc(N[C@H]2CC[C@H](N)C2)n2nccc2n1 [Compound 138] | 1 to 500 nM |
| CC(C)OC(=O)N[C@@H]1CC[C@@H](Nc2cc(C(C)C)nc3ccnn23)C1 [Compound 140] | 1 to 500 nM |
| CC(C)c1cc(N[C@@H]2CC[C@@H](NC(=O)OCc3ccccc3)C2)n2nccc2n1 [Compound 141] | 1 to 500 nM |
| O=CN[C@@H]1CC[C@@H](Nc2cc(C3CC3)nc3ccnn23)C1 [Compound 142] | 1 to 500 nM |
| CCC(C)c1cc(N[C@@H]2CC[C@@H](NC=O)C2)n2nccc2n1 (some centres unmarked) [Compound 143] | 1 to 500 nM |
| COC(=O)N[C@@H]1CC[C@@H](Nc2cc(C(C)C)nc3ccnn23)C1 [Compound 145] | 1 to 500 nM |
| CC(C)c1cc(N[C@@H]2CC[C@@H](N(C)C=O)C2)n2nccc2n1 [Compound 146] | 1 to 500 nM |
| CCC(CC)c1cc(N[C@H]2CC[C@H](NC(=O)c3cnc(C)cn3)C2)n2nccc2n1 [Compound 148] | 1 to 500 nM |
| CCC(CC)c1cc(N[C@H]2CC[C@H](Nc3ccccn3)C2)n2nccc2n1 [Compound 149] | 1 to 500 nM |
| COCCN[C@@H]1CC[C@@H](Nc2cc(C(C)C)nc3ccnn23)C1 [Compound 150] | 1 to 500 nM |
| CC(C)c1cc(N[C@@H]2CC[C@@H](N(O)C(N)=O)C2)n2nccc2n1 [Compound 151] | 1 to 500 nM |
| N[C@H]1CC[C@H](Nc2cc(-c3ccc4c(c3)OCO4)nc3ccnn23)C1 [Compound 152] | 1 to 500 nM |

| Compound | IC50 |
| --- | --- |
| CCC(CC)c1cc(N[C@H]2CC[C@H](N(C)CCOC)C2)n2nccc2n1 [Compound 153] | 1 to 500 nM |
| CN/C(=N/C#N)N[C@@H]1CC[C@@H](Nc2cc(C(C)C)nc3ccnn23)C1 [Compound 154] | 1 to 500 nM |
| CC(C)c1cc(N[C@H]2CC[C@H](N)C2)n2ncc(C#N)c2n1 [Compound 155] | 1 to 500 nM |
| N[C@H]1CC[C@H](Nc2cc(N3CCCCC3)nc3ccnn23)C1 [Compound 156] | 1 to 500 nM |
| CC(C)c1cc(N[C@@H]2CC[C@@H](NC(=N)N)C2)n2nccc2n1 [Compound 157] | 1 to 500 nM |
| CC(C)c1cc(N[C@@H]2CC[C@@H](NC(=O)OCc3ccccc3)C2)n2ncc(Cl)c2n1 [Compound 158] | 1 to 500 nM |
| CC(C)OC(=O)N[C@@H]1CC[C@@H](Nc2cc(C(C)C)nc3c(Cl)cnn23)C1 [Compound 159] | 501 to 1000 nM |
| N[C@H]1CC[C@H](Nc2cc(-c3ccc4ccccc4c3)nc3ccnn23)C1 [Compound 160] | 501 to 1000 nM |
| COc1cc(C)cc(-c2cc(N[C@H]3CC[C@H](N)C3)n3nccc3n2)c1 [Compound 161] | 1 to 500 nM |
| N[C@H]1CC[C@H](Nc2cc(Nc3ccc4ccccc4c3)nc3ccnn23)C1 [Compound 162] | 1 to 500 nM |
| N[C@H]1CC[C@H](Nc2cc(N3CCOCC3)nc3ccnn23)C1 [Compound 163] | 1 to 500 nM |
| Cc1cccc(-c2cc(N[C@H]3CC[C@H](N)C3)n3nccc3n2)c1 [Compound 164] | 1 to 500 nM |
| COc1cc(Cl)cc(-c2cc(N[C@H]3CC[C@H](N)C3)n3nccc3n2)c1 [Compound 165] | 1 to 500 nM |
| N[C@H]1CC[C@H](Nc2cc(-c3cccc(Cl)c3)nc3ccnn23)C1 [Compound 166] | 1 to 500 nM |
| COc1cc(N[C@@H]2CC[C@@H](N)C2)n2nccc2n1 [Compound 168] | 501 to 1000 nM |
| Cn1cncc1-c1cc(N[C@H]2CC[C@H](NC=O)C2)n2nccc2n1 [Compound 169] | 501 to 1000 nM |
| CCN(CC)c1cc(N[C@H]2CC[C@H](N)C2)n2nccc2n1 [Compound 170] | 1 to 500 nM |
| N[C@H]1CC[C@H](Nc2cc(Nc3cccc4ccccc34)nc3ccnn23)C1 [Compound 171] | 1 to 500 nM |
| N[C@H]1CC[C@H](Nc2cc(-c3cccc4ccccc34)nc3ccnn23)C1 [Compound 172] | 1 to 500 nM |
| N[C@H]1CC[C@H](Nc2cc(-c3cc(Cl)cc(Cl)c3)nc3ccnn23)C1 [Compound 173] | 1 to 500 nM |
| Cn1cncc1-c1cc(N[C@H]2CC[C@H](N)C2)n2nccc2n1 [Compound 174] | 1 to 500 nM |

| Compound | IC50 |
| --- | --- |
| O=C(N[C@H]1CC[C@H](Nc2cc(C3CC3)nc3ccnn23)C1)OCc1ccccc1 [Compound 175] | > 1000 nM |
| Cc1cnn2c(N[C@@H]3CC[C@@H](NC(=O)OC(C)C)C3)cc(C(C)C)nc12 [Compound 176] | 1 to 500 nM |
| CC(C)N(C)c1cc(N[C@H]2CC[C@H](N)C2)n2nccc2n1 [Compound 177] | 1 to 500 nM |
| Cc1cnn2c(N[C@@H]3CC[C@@H](NC(=O)OCc4ccccc4)C3)cc(C(C)C)nc12 [Compound 178] | 1 to 500 nM |
| COCCNc1cc(N[C@H]2CC[C@H](N)C2)n2nccc2n1 [Compound 179] | 501 to 1000 nM |
| COC(=O)N[C@H]1CC[C@H](Nc2cc(C3CC3)nc3ccnn23)C1 [Compound 180] | > 1000 nM |
| CN(CCO)c1cc(N[C@H]2CC[C@H](N)C2)n2nccc2n1 [Compound 181] | 1 to 500 nM |
| CCOc1cc(N[C@H]2CC[C@H](N)C2)n2nccc2n1 [Compound 182] | 501 to 1000 nM |
| CC(C)c1cc(N[C@H]2CC[C@H](N)C2)n2nc(N)cc2n1 [Compound 183] | > 1000 nM |
| Cc1cnn2c(N[C@H]3CC[C@H](N)C3)cc(CC(C)C)nc12 [Compound 184] | 1 to 500 nM |
| CN(Cc1ccccc1)c1cc(N[C@H]2CC[C@H](N)C2)n2nccc2n1 [Compound 188] | 1 to 500 nM |
| CCNc1cc(N[C@H]2CC[C@H](N)C2)n2nccc2n1 [Compound 189] | 1 to 500 nM |
| N[C@H]1CC[C@H](Nc2cc(-c3ccc4c(c3)OCO4)nc3c(Cl)cnn23)C1 [Compound 195] | 1 to 500 nM |
| Cc1cc(C)cc(-c2cc(N[C@H]3CC[C@H](N)C3)n3nccc3n2)c1 [Compound 196] | 1 to 500 nM |
| CC(C)c1ccc(-c2cc(N[C@H]3CC[C@H](N)C3)n3nccc3n2)cc1 [Compound 199] | 1 to 500 nM |
| N[C@H]1CC[C@H](Nc2cc(C3=CCCCC3)nc3ccnn23)C1 [Compound 200] | 1 to 500 nM |
| CC(C)(C#N)c1ccc(-c2cc(N[C@H]3CC[C@H](N)C3)n3nccc3n2)cc1 [Compound 204] | 1 to 500 nM |
| N[C@H]1CC[C@H](Nc2cc(-c3ccc(C4CC4)cc3)nc3ccnn23)C1 [Compound 205] | 1 to 500 nM |
| N[C@H]1CC[C@H](Nc2cc(C3CCCCC3)nc3ccnn23)C1 [Compound 206] | 1 to 500 nM |
| CC1(C)CC1c1cc(N[C@H]2CC[C@H](N)C2)n2nccc2n1 (some centres unmarked) [Compound 208] | 1 to 500 nM |
